Key:
[1] = molecular target: T1, glutathione-S-transferase (GST) tagged LXRalpha LBD (ligand binding domain) (Homo sapiens, UniProt Q13133); assay: LanthaScreen TR-FRET Liver X Receptor Coactivator Assay, LXR alpha-LBD; format: biochemical; settings: for Emax: efficacy in relation to reference dual agonist T1317, read-out: LXR alpha activity at max dose (%) (Emax); for EC50: potency (Inflection Point) of co-activator recruitment, TR-FRET, read-out: LXR alpha IP
T1 construct: purchased Invitrogen pv4655
T1 sequence (Q13133 209-447 limits assumed): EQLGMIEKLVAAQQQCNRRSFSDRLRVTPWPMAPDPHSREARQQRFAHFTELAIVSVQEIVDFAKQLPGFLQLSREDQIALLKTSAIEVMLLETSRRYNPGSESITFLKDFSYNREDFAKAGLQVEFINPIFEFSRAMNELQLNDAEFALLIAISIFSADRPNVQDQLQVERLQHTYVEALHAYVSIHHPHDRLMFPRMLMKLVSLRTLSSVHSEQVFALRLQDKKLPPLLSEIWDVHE
Outline: (§1)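 TR-FRET coactivator recruitment read-out: compounds first received either LBD, followed by a mix of terbium-labelled anti-GST antibody and fluorescein coactivator peptide. Signal measured by time-resolved FRET once plates had incubated at room temperature.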

[2] = molecular target: T2, glutathione-S-transferase (GST) tagged LXRbeta LBD (ligand binding domain) (Homo sapiens, UniProt P55055); assay: LanthaScreen TR-FRET Liver X Receptor Coactivator Assay, LXR beta-LBD; format: biochemical; settings: for Emax: efficacy in relation to reference dual agonist T1317, read-out: LXR beta activity at max dose (%) (Emax); for EC50: potency (Inflection Point) of co-activator recruitment, TR-FRET, read-out: LXR beta IP
T2 construct: purchased Invitrogen pv4658.pps
T2 sequence (P55055 222-460 limits assumed): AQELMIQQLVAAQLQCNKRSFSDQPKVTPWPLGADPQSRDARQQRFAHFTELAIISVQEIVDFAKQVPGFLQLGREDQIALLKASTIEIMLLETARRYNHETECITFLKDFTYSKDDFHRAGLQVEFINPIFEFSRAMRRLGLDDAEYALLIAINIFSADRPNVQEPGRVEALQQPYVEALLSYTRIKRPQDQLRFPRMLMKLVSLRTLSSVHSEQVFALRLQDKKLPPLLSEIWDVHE
Outline: as §1

SMILES	Emax [1]	EC50 [1]	Emax [2]	EC50 [2]
CC(C)S(=O)(=O)N1CCN(c2ncc(-c3ccc(C(=O)N(C)C)c(Cl)c3)cc2C#N)CC1 [Example 1-15, 2-chloro-4-(5-cyano-6-{4-[(1-methylethyl)sulfonyl]piperazin-1-yl}pyridin-3-yl)-N,N-dimethylbenzamide]	43%	19.5 µM	86%	437 nM
CN(C)C(=O)c1ccc(-c2cnc(N3CCN(S(=O)(=O)c4c(Cl)cccc4Cl)CC3)c(C#N)c2)cc1Cl [Example 1-1, 2-chloro-4-(5-cyano-6-{4-[(2,6-dichlorophenyl)sulfonyl]piperazin-1-yl}pyridin-3-yl)-N,N-dimethylbenzamide]	55%	0.69 µM	124%	7 nM
CN(C)C(=O)c1ccc(-c2cnc(N3CCN(S(=O)(=O)Cc4ccccc4Cl)CC3)c(C#N)c2)cc1Cl [Example 1-12, 2-chloro-4-(6-{4-[(2-chlorobenzyl)sulfonyl]piperazin-1-yl}-5-cyanopyridin-3-yl)-N,N-dimethylbenzamide]	27%	7.41 µM	97%	28 nM
CN(C)C(=O)c1ccc(-c2cnc(N3CCN(S(=O)(=O)C4CC4)CC3)c(C#N)c2)cc1Cl [Example 1-2, 2-chloro-4-{5-cyano-6-[4-(cyclopropylsulfonyl)piperazin-1-yl]pyridin-3-yl}-N,N-dimethylbenzamide]	37%	22.5 µM	68%	543 nM

Other lines, results leading:

Emax [1]	EC50 [1]	Emax [2]	EC50 [2]	SMILES
37%	8.44 µM	60%	481 nM	CC(C)(C)OC(=O)N1CCN(c2ncc(-c3ccc(C(=O)N4CC[C@@H](O)C4)c(Cl)c3)cc2C#N)CC1 [Example 5-12, tert-butyl 4-[5-(3-chloro-4-{[(3R)-3-hydroxypyrrolidin-1-yl]carbonyl}phenyl)-3-cyanopyridin-2-yl]piperazine-1-carboxylate]
55%	0.936 µM	86%	63 nM	CN(C)C(=O)c1ccc(-c2ccc(N3CCCN(C(=O)OC(C)(C)C)CC3)cc2)cc1Cl [Example 8-1, tert-butyl 4-[3′-chloro-4′-(dimethylcarbamoyl)biphenyl-4-yl]-1,4-diazepane-1-carboxylate]
44%	23.9 µM	78%	2210 nM	C=CCN(C(=O)c1ccc(-c2cnc(N3CCN(C(=O)OC(C)(C)C)CC3)c(C#N)c2)cc1Cl)C1CCS(=O)(=O)C1 (stereo not shown) [Example 5-32, tert-butyl 4-(5-{3-chloro-4-[(1,1-dioxidotetrahydro-thiophen-3-yl)(prop-2-en-1-yl)carbamoyl]phenyl}-3-cyanopyridin-2-yl)piperazine-1-carboxylate]
48%	25.9 µM	74%	4270 nM	CN(CCc1ccccc1)C(=O)c1ccc(-c2cnc(N3CCN(C(=O)OC(C)(C)C)CC3)c(C#N)c2)cc1Cl [Example 5-26, tert-butyl 4-(5-{3-chloro-4-[methyl(2-phenylethyl)carbamoyl]phenyl}-3-cyanopyridin-2-yl)piperazine-1-carboxylate]
16%	1.6 µM	39%	188 nM	CN(C)C(=O)c1ccc(-c2cc(Cl)c(N3CCN(C(=O)c4ccccc4Cl)CC3)c(Cl)c2)cc1Cl [Example 4-6, 3,3′,5′-trichloro-4′-{4-[(2-chlorophenyl)carbonyl]piperazin-1-yl}-N,N-dimethylbiphenyl-4-carboxamide]
60%	2.31 µM	119%	12 nM	CN(C)C(=O)c1ccc(-c2cnc(N3CCN(C(=O)OCc4c(Cl)cccc4Cl)CC3)c(C#N)c2)cc1Cl [Example 3-1, 2,6-dichlorobenzyl4-{5-[3-chloro-4-(dimethylcarbamoyl)phenyl]-3-cyanopyridin-2-yl}piperazine-1-carboxylate]
